# Reference: US9155741B2, “Methods of using a methylxanthine compound” (The Trustees of the University of Pennsylvania, priority 2008, dated 2015)
# Tests used:
# [1] = target: T1, cytochrome oxidase (CcOX) (Rattus norvegicus, UniProt P05503); assay: Myocardial cytochrome oxidase steady-state kinetic activity in isolated cardiac mitochondria after CLP or sham operation; format: in vivo
# T1 construct: from tissue; host or cells: mitochondria isolated from cardiac ventricles of Sprague-Dawley rats
# Procedure: (§1) The care of the animals in this study was in accordance with NIH and Institutional Animal Care and Use Committee guidelines. Under isoflurane general anesthesia (up to 2%), 250 g male Sprague-Dawley rats (Charles River, Boston, Mass., USA) underwent cecal ligation and double puncture (CLP) with an 18-gauge needle or sham operation as previously described. All animals were administered 50 ml/kg saline subcutaneously immediately post procedure and every 24 hours. Once awake, animals were given access to food and water ad libitum.
# (§2) Twenty four and 48 hours post-procedure, rats received either an intraperitoneal (i.p) injection of caffeine (7.5 mg/kg, Sigma-Aldrich, St. Louis, Mo.) or equal volume saline (1 mL). […] Four cohorts were evaluated: SHAM saline, SHAM caffeine, CLP saline, CLP caffeine. […]
# (§3) Cardiac ventricles were harvested and homogenized in ice-cold H medium (70 mM sucrose, 220 mM mannitol, 2.5 mM Hepes, pH 7.4 and 2 mM EDTA). […] Pellets were again resuspended in H medium and mitochondrial protein concentration determined using the method of Lowry.
# CcOX kinetics were assayed by the method of Smith in which the rate of oxidation of ferrocytochrome c was measured by following the decrease in absorbance at 550 nm. […] Specific activity was calculated from mean values of three to four measurements using 21.1 mM−cm^−1 as the extinction coefficient of ferrocytochrome c at 550 nm. […]
# [2] = system: cytochrome oxidase subunit I (CcOX-I); assay: Immunoblot of steady-state levels of cardiac cytochrome oxidase subunit I; format: in vivo, rat; conditions: between all groups (SHAM/CLP, saline/caffeine), normalized to porin
# Procedure: as §1, §2, §3
# 10 μg samples of mitochondrial protein were subjected to SDS-acrylamide gel electrophoresis and immunoblotting. […] The signal was detected with enhanced chemiluminescence (ECL; Amersham Pharmacia Biotech, Piscataway, N.J., USA), and density was measured using scanning densitometry. Five animals per group per experiment were evaluated.
# isolated rat heart = assay: Isolated rat heart preparation (left ventricular function, coronary perfusion, oxygen extraction and consumption) after CLP or sham operation; format: in vivo; conditions: for heart rate: mean +/- SD
# Procedure: as §1
# Twenty four and 48 hours post-procedure, rats received either an intraperitoneal (i.p) injection of caffeine (7.5 mg/kg, Sigma-Aldrich, St. Louis, Mo.) or equal volume saline (1 mL). Rats were sacrificed one hour after the 48 hour injection following euthanasia with 150 mg/kg of intraperitoneal pentobarbital. Four cohorts were evaluated: SHAM saline, SHAM caffeine, CLP saline, CLP caffeine. N=5 per group. The 24-hour time point was chosen for initial intervention based on the onset of the hypodynamic phase when cardiac function begins to deteriorate and the presence of reversible CcOX inhibition. Studies were performed at the 48-hour time point because this time point represents the late phase of sepsis when cardiac function is markedly depressed and mortality is 75%.
# Rats were anesthetized with intraperitoneal pentobarbital (70 mg/kg) and heparinized (1000 U IP). The heart was excised rapidly and the aorta was cannulated. Retrograde perfusion was initiated at constant flow (12 mL/g-min) with a modified Krebs-Henseleit buffer containing (mmol/L) NaCl 120, KCl 4.7, MgSO4 1.2, KH2PO4 1.2, CaCl2 1.25, NaHCO3 25, and glucose. The non-recirculating buffer was maintained at pH 7.4 equilibrated with 95% O2-5% CO2 at 37° C. Isovolumetric left ventricle pressure (LVP) was measured with a transducer connected to a saline-filled latex balloon inserted into the left ventricle through the left atrium. The balloon was inflated to maintain an end-diastolic pressure of 10 mmHg Hearts were immersed in a water-jacketed chamber maintained at 37° C. and allowed to stabilize for 30 minutes.
# Heart rate, LVP, the maximum rate of positive and negative change in LVP (+/−dP/dt), and aortic pressure were collected with an analog-to-digital converter system (Power Laboratory 4SP, ADlnstruments, Castle Hill, Australia). […] Measurements were obtained at coronary flow rates (CF) of 12, 10, 8, 6, and 4 mL/g-min Coronary inflow oxygen tension (PaO2) and coronary sinus oxygen tension (PvO2) were measured (GEM Premier 3000, Instrumentation Laboratory, Belgium). Percent O2 extraction was calculated as 100×(PaO2-PvO2/PaO2). Myocardial O2 consumption (MO2) was calculated as CF/g×(PaO2-PvO2)×O2 solubility at 760 mmHg O2 solubility is 24 |il/ml H2O at 37° C. Coronary perfusion pressure was calculated as the difference between mean aortic pressure and LV end-diastolic pressure. Coronary resistance was calculated by dividing perfusion pressure by coronary flow.
# [3] = system: cecal ligation and puncture (CLP) sepsis model; assay: Survival to 96 hours following CLP or sham operation; format: in vivo, rat
# Procedure: as §1
# The survival was followed in a separate cohort of animals in this two treatment parallel-design study to 96 hours. Each animal was injected with either caffeine (7.5 mg/kg i.p.) or equal volume of saline (1 mL i.p.) every 24 hours beginning 24 hours following CLP or sham operation. Twenty animals per group were evaluated based on the probability being 80 percent that the study will detect a treatment difference at a two-sided 5.0 percent significance level, if the true hazard ratio is 3.
# Data are presented as mean +/− standard deviation. Statistical significance was assessed using ANOVA and post hoc Tukey's test with p<0.05. Statistical significance in the survival study was assessed using Kaplan-Meier survival curves and Mantel-Cox log-rank test.
# [4] = CLP caffeine, 12 mL/g-min coronary flow, compared to saline injected sham values (so in the source)
# [5] = CLP caffeine, toward saline injected sham values, most flow rates
# [6] = sham caffeine vs both CLP groups, all coronary flow rates
# [7] = sham caffeine vs saline injected sham, highest flow rates
smiles,measurement,setting,value
Cn1c(=O)c2c(ncn2C)n(C)c1=O [caffeine],myocardial CcOX kinetic activity normalized to citrate synthase activity,"[1]; CLP rats, 48 hours, caffeine 7.5 mg/kg i.p. at 24 and 48 hours, vs sham",restored CcOX kinetic activity in CLP rats to sham values
same,myocardial CcOX kinetic activity normalized to citrate synthase activity,"[1]; sham animals, caffeine injected vs saline injected",no significant difference
same,steady-state myocardial CcOX I levels,[2],no significant difference
same,coronary resistance,isolated rat heart; CLP caffeine vs CLP saline,significantly increased
same,coronary perfusion pressure,"isolated rat heart; CLP caffeine vs CLP saline, 12 mL/g-min coronary flow",significantly increased
same,left ventricular pressure (LVP),"isolated rat heart; CLP caffeine vs CLP saline, all flow rates greater than 4 mL/g-min",significantly improved
same,left ventricular pressure (LVP),"isolated rat heart; CLP caffeine vs saline injected sham, flow rates except 12 mL/g-min",approached saline injected sham values
same,left ventricular pressure (LVP),"isolated rat heart; CLP caffeine vs sham cohorts, 12 mL/g-min coronary flow",significantly lower than both sham cohorts
same,coronary perfusion pressure,"isolated rat heart; CLP caffeine vs sham controls, almost all coronary flow rates",significant reductions
same,myocardial oxygen consumption,isolated rat heart; [4],significantly increased
same,myocardial oxygen extraction,isolated rat heart; [4],significantly increased
same,heart rate,isolated rat heart; CLP caffeine,262+/−11 bpm
same,+dP/dt,isolated rat heart; [5],significantly improved
same,−dP/dt,isolated rat heart; [5],significantly improved
same,left ventricular pressure (LVP),"isolated rat heart; sham caffeine vs all other groups, highest coronary flow rates",significantly increased
same,myocardial oxygen consumption,"isolated rat heart; sham caffeine vs both CLP cohorts, 12 mL/g-min coronary flow",significantly increased
same,+dP/dt,isolated rat heart; [6],significantly increased
same,−dP/dt,isolated rat heart; [6],significantly increased
same,+dP/dt,isolated rat heart; [7],significantly increased
same,−dP/dt,isolated rat heart; [7],significantly increased
same,coronary resistance,isolated rat heart; sham caffeine vs sham saline,significantly decreased
same,coronary perfusion pressure,"isolated rat heart; sham caffeine vs sham saline, highest flow rate",significantly reduced
same,heart rate,isolated rat heart; sham caffeine,276+/−11 bpm
same,animals survived to 48 hours,"[3]; CLP, caffeine 7.5 mg/kg i.p. daily from 24 hours, 48 hours",Eighty
same,animals survived to 72 hours,"[3]; CLP, caffeine 7.5 mg/kg i.p. daily from 24 hours, 72 hours",55%
same,animals survived to 96 hours,"[3]; CLP, caffeine 7.5 mg/kg i.p. daily from 24 hours, 96 hours",40%
same,mortality,"[3]; sham operation, caffeine 7.5 mg/kg i.p. daily, to 96 hours",no mortality
